# Source: PMC4747864 (Molecular cancer therapeutics, 2015)
# Entries after “also recorded” stand apart in the source; their conditions may differ. Where a SMILES comes first, the peptide text is derived from it. Bridges are numbered along the chain shown (N, C = ends). [ ]: non-standard residue; d: D form. dPen = CC(C)(S)[C@@H](N)C(=O)O; βAla = NCCC(=O)O
# Assays:
# [1] = biological target: αvβ3 integrin (K562/αvβ3+ cells) (Homo sapiens, UniProt P05106+P06756); type: binding; details: for decrease (loss) of binding affinity / potency relative to LXW7: versus parent LXW7
# [2] = biological target: T1, αvβ3 integrin (αvβ3-K562 cells) (Homo sapiens, UniProt P05106+P06756); type: binding; details: 1μM biotinylated LXW64, then streptavidin-PE, flow cytometry
# [3] = biological target: T2, αvβ5 integrin (αvβ5-K562 cells) (Homo sapiens, UniProt P06756+P18084); type: binding; details: 1μM biotinylated LXW64, then streptavidin-PE, flow cytometry
# [4] = biological target: T3, αIIbβ3 integrin (αIIbβ3-K562 cells) (Homo sapiens, UniProt P05106+P08514); type: binding; details: 1μM biotinylated LXW64, then streptavidin-PE, flow cytometry
# [5] = biological target: T4, α5β1 integrin (parent K562 cells) (Homo sapiens, UniProt P05556+P08648); type: binding; details: 1μM biotinylated LXW64, then streptavidin-PE, flow cytometry
# [6] = system: U-87MG glioblastoma cells; assay: Binding to U-87MG glioblastoma cells in vitro; type: cell-based
# [7] = biological target: T1, αvβ3 integrin (αvβ3-K562 cells); details: earlier study; cited from earlier work
# [8] = biological target: T2, αvβ5 integrin (αvβ5-K562 cells); details: earlier study; cited from earlier work
# [9] = biological target: T3, αIIbβ3 integrin (αIIbβ3-K562 cells); details: earlier study; cited from earlier work
# [10] = biological target: T4, α5β1 integrin (parent K562 cells); details: earlier study; cited from earlier work
# [11] = system: glioblastoma U-87MG or melanoma A375M xenograft models; details: in vivo and ex vivo optical imaging, U-87MG or A375M xenograft models; cited from earlier work
compound,measurement,setting,value
R3-cGRGDdvc-NH2 [compound 20],binding affinity compared with LXW7 (in words),[1],modest loss of potency
"CC(C)[C@H]1NC(=O)[C@@H](CC(=O)O)NC(=O)[C@H](CC(=O)O)NC(=O)CNC(=O)[C@H](CCCNC(=N)N)NC(=O)CNC(=O)[C@H](N)CSSC(C)(C)[C@H](C(N)=O)NC1=O [peptide 6, cGRGDdv-DPen-NH2] (H-[dC]GRGD[dD][dV][dPen]-NH2; disulfide 1-8 (inferred); N-terminus assumed)",decrease (loss) of binding affinity / potency relative to LXW7,[1],4 to 10 fold
"N=C(N)NCCC[C@@H]1NC(=O)CNC(=O)[C@H](N)CSSC[C@H](C(N)=O)NC(=O)[C@@H](Cc2cccc3ccccc23)NC(=O)[C@@H](CC(=O)O)NC(=O)[C@H](CC(=O)O)NC(=O)CNC1=O [peptide 40, cGRGDd-DNal1-c-NH2]",higher binding affinity than LXW7,[1]; versus LXW7,6.6 fold
same,binding to αvβ3-K562 cells,[2],strongly; also recorded: significant positive binding
same,binding to αvβ5-K562 cells,[3],weakly
same,binding to αIIbβ3-K562 cells,[4],weakly
same,binding to parent K562 cells (α5β1),[5],no binding
same,binding to U-87MG glioblastoma cells,[6],binding strongly
"CC(C)[C@H]1NC(=O)[C@@H](CC(=O)O)NC(=O)[C@H](CC(=O)O)NC(=O)CNC(=O)[C@H](CCCNC(=N)N)NC(=O)CNC(=O)[C@H](N)CSSC[C@@H](C(N)=O)NC1=O [peptide 3, cGRGDdvC-NH2] (H-[dC]GRGD[dD][dV]C-NH2; disulfide 1-8 (inferred); N-terminus assumed)",decrease (loss) of binding affinity / potency relative to LXW7,[1],16 fold
R4-cGRGDdvc-NH2 [compound 21],binding affinity compared with LXW7 (in words),[1],modest loss of potency
"CC(C)[C@H]1NC(=O)[C@@H](CC(=O)O)NC(=O)[C@H](CC(=O)O)NC(=O)CNC(=O)[C@H](CCCNC(=N)N)NC(=O)[C@@H](C)NC(=O)[C@H](N)CSSC[C@H](C(N)=O)NC1=O [peptide 8, caRGDdvc-NH2] (H-[dC][dA]RGD[dD][dV][dC]-NH2; disulfide 1-8 (inferred); N-terminus assumed)",decrease (loss) of binding affinity / potency relative to LXW7,[1],7.8 fold
"CC(C)[C@H]1NC(=O)[C@@H](CC(=O)O)NC(=O)[C@H](CC(=O)O)NC(=O)CNC(=O)[C@H](CCCNC(=N)N)NC(=O)CNC(=O)[C@@H](N)CSSC[C@@H](C(N)=O)NC1=O [peptide 4, CGRGDdvC-NH2] (H-CGRGD[dD][dV]C-NH2; disulfide 1-8 (inferred); N-terminus assumed)",binding affinity compared with LXW7 (in words),[1],complete loss of binding affinity
"CC(C)[C@H]1NC(=O)[C@@H](CC(=O)O)NC(=O)[C@H](CC(=O)O)NC(=O)CNC(=O)[C@H](CCCNC(=N)N)NC(=O)CNC(=O)[C@@H](N)CSSC[C@H](C(N)=O)NC1=O [peptide 2, CGRGDdvc-NH2] (H-CGRGD[dD][dV][dC]-NH2; disulfide 1-8 (inferred); N-terminus assumed)",decrease (loss) of binding affinity / potency relative to LXW7,[1],10 fold
"CC(C)[C@H]1NC(=O)[C@@H](CC(=O)O)NC(=O)[C@H](CC(=O)O)NC(=O)CNC(=O)[C@H](CCCNC(=N)N)NC(=O)CNC(=O)[C@H](N)CSSC[C@H](C(N)=O)NC1=O [peptide 1, cGRGDdvc-NH2] (H-[dC]GRGD[dD][dV][dC]-NH2; disulfide 1-8 (inferred); N-terminus assumed)",binding to αvβ3 integrin,[7],strongly
same,binding to αvβ5 integrin,[8],weakly
same,binding to αIIbβ3 integrin,[9],weakly
same,binding to α5β1 integrin,[10],no binding
same,liver uptake,[11],low liver uptake
same,tumor uptake,[11],excellent tumor uptake
"CC(C)[C@H]1NC(=O)[C@@H](CC(=O)O)NC(=O)[C@H](CC(=O)O)NC(=O)CNC(=O)[C@H](CCCNC(=N)N)NC(=O)CNC(=O)[C@H](N)C(C)(C)SSC(C)(C)[C@H](C(N)=O)NC1=O [peptide 7, DPen-GRGDdv-DPen-NH2] (H-[dPen]GRGD[dD][dV][dPen]-NH2; disulfide 1-8 (inferred); N-terminus assumed)",decrease (loss) of binding affinity / potency relative to LXW7,[1],4 to 10 fold
"CC(C)[C@H]1NC(=O)[C@@H](CC(=O)O)NC(=O)[C@H](CC(=O)O)NC(=O)CNC(=O)[C@H](CCCNC(=N)N)NC(=O)CCNC(=O)[C@H](N)CSSC[C@H](C(N)=O)NC1=O [peptide 9, c-βala-RGDdvc-NH2] (H-[dC][βAla]RGD[dD][dV][dC]-NH2; disulfide 1-8 (inferred); N-terminus assumed)",decrease (loss) of binding affinity / potency relative to LXW7,[1],11 fold
"CC(C)[C@H]1NC(=O)[C@@H](CC(=O)O)NC(=O)[C@H](CC(=O)O)NC(=O)CNC(=O)[C@H](CCCNC(=N)N)NC(=O)CNC(=O)[C@H](N)C(C)(C)SSC[C@H](C(N)=O)NC1=O [peptide 5, DPen-GRGDdvc-NH2] (H-[dPen]GRGD[dD][dV][dC]-NH2; disulfide 1-8 (inferred); N-terminus assumed)",decrease (loss) of binding affinity / potency relative to LXW7,[1],4 to 10 fold
